# Results reported in patent US5132111A (priority 1990, dated 1992).
# Non-standard residues stand in square brackets, D forms with d. Residues, ends and D or L forms follow the SMILES beside them. Nle = CCCC[C@H](N)C(=O)O
# System: CRF Target Cells (anterior pituitary cells)
# Type: cell-based, rat
Molecule,ACTH secretion in response to CRF 3 days following pretreatment [times the basal rate],ACTH-secretory response to subsequent CRF after pretreatment,decrease of ACTH content [%]
H-Ser-Gln-Glu-Pro-Pro-Ile-Ser-Leu-Asp-Leu-Thr-Phe-His -Leu-Leu-Arg-Glu-Val-Leu-Glu-Met-Thr-Lys-Ala-Asp-Gln -Leu-Ala-Gln-Gln-Ala-His-Ser-Asn-Arg-Lys-Leu-Leu-Asp-Ile-Ala-NH2 [CRF],3.7,does not eliminate the ability of the cells to respond,40

# System: gonadotropes (anterior pituitary cells)
# Type: cell-based, rat
Molecule,LH-secretory response to GnRH after pretreatment,effect on LH content
H-Ser-Gln-Glu-Pro-Pro-Ile-Ser-Leu-Asp-Leu-Thr-Phe-His -Leu-Leu-Arg-Glu-Val-Leu-Glu-Met-Thr-Lys-Ala-Asp-Gln -Leu-Ala-Gln-Gln-Ala-His-Ser-Asn-Arg-Lys-Leu-Leu-Asp-Ile-Ala-NH2 [CRF],no effect,neither CRF nor the cytotoxic conjugate has any significant effect on LH content

# System: secretion of ACTH and β-END-LI
Molecule,secretion of ACTH (inhibition),secretion of β-END-LI (inhibition)
"CCCC[C@H](NC(=O)[C@H](CCC(=O)O)NC(=O)[C@H](CC(C)C)NC(=O)[C@H](CCCC)NC(=O)[C@H](CCC(=O)O)NC(=O)[C@H](CCCNC(=N)N)NC(=O)[C@H](CC(C)C)NC(=O)[C@H](CC(C)C)NC(=O)[C@H](Cc1c[nH]cn1)NC(=O)[C@H](Cc1ccccc1)NC(=O)[C@@H](NC(=O)[C@H](CC(C)C)NC(=O)[C@@H](N)CC(=O)O)[C@@H](C)O)C(=O)N[C@@H](C)C(=O)N[C@@H](CCCNC(=N)N)C(=O)N[C@@H](C)C(=O)N[C@@H](CCC(=O)O)C(=O)N[C@@H](CCC(N)=O)C(=O)N[C@@H](CCC(=O)O)C(=O)N[C@@H](C)C(=O)N[C@@H](CCC(=O)O)C(=O)N[C@@H](CCC(N)=O)C(=O)N[C@@H](C)C(=O)N[C@@H](C)C(=O)N[C@@H](CC(C)C)C(=O)N[C@@H](CC(N)=O)C(=O)N[C@@H](CCCNC(=N)N)C(=O)N[C@@H](CC(C)C)C(=O)N[C@@H](CC(C)C)C(=O)N[C@@H](CC(C)C)C(=O)N[C@@H](CCC(=O)O)C(=O)N[C@@H](CCC(=O)O)C(=O)N[C@@H](C)C(N)=O [[Nle^18,21]-AAHC(9-41)] (H-DLTFHLLRE[Nle]LE[Nle]ARAEQEAEQAALNRLLLEEA-NH2)",inhibits,inhibits
"CCCC[C@H](NC(=O)[C@H](CCC(=O)O)NC(=O)[C@H](CC(C)C)NC(=O)[C@H](CCCC)NC(=O)[C@H](CCC(=O)O)NC(=O)[C@H](CCCNC(=N)N)NC(=O)[C@H](CC(C)C)NC(=O)[C@H](CC(C)C)NC(=O)[C@H](Cc1c[nH]cn1)NC(=O)[C@H](Cc1ccccc1)NC(=O)[C@@H](NC(=O)[C@@H](N)CC(C)C)[C@@H](C)O)C(=O)N[C@@H](C)C(=O)N[C@@H](CCCNC(=N)N)C(=O)N[C@@H](C)C(=O)N[C@@H](CCC(=O)O)C(=O)N[C@@H](CCC(N)=O)C(=O)N[C@@H](CCC(=O)O)C(=O)N[C@@H](C)C(=O)N[C@@H](CCC(=O)O)C(=O)N[C@@H](CCC(N)=O)C(=O)N[C@@H](C)C(=O)N[C@@H](C)C(=O)N[C@@H](CC(C)C)C(=O)N[C@@H](CC(N)=O)C(=O)N[C@@H](CCCNC(=N)N)C(=O)N[C@@H](CC(C)C)C(=O)N[C@@H](CC(C)C)C(=O)N[C@@H](CC(C)C)C(=O)N[C@@H](CCC(=O)O)C(=O)N[C@@H](CCC(=O)O)C(=O)N[C@@H](C)C(N)=O [[Nle^18,21]-AAHC(10-41)] (H-LTFHLLRE[Nle]LE[Nle]ARAEQEAEQAALNRLLLEEA-NH2)",inhibits,inhibits
H-Asp-CML-Thr-Leu-Glu -CML-CML-Arg-Glu-Met-CML-Glu-Met-CMA-Arg-Ala-Glu-Gln-CML -Ala-Glu-Gln-Ala-CMA-CML-Asn-Arg-Leu-CML-Leu-Glu-Glu-CMA-NH2,inhibits,inhibits
"H-DLTFELLREVLEVARAEQLAQQAHSNRRLMEII-NH2 [[Glu^13, Val^21, Arg^36]-rCRF (9-41)]",inhibits,inhibits
H-DLTFHLLREMLEMARAEQEAEQAALNRLLLEEA-NH2 [AAHC(9-41)],inhibits,–
"H-DLTFHLLREVAEMTRAEQLAQQAHSNRRLMEII-NH2 [[Ala^19, Thr^22, Arg^36]-hCRF (9-41)]",inhibits,inhibits
H-DLTFHLLREVLEMARAEQLAQQAHSNRRLMEII-NH2 [[Arg^36]-rCRF (9-41)],inhibits,–
H-IDLTFHLLRNMIEMARNENQREQAGLNRRYLDEV-NH2 [[Arg^36]-Carp Urotensin I(8-41)],inhibits,inhibits
H-LDLTFHLLREVLEMARAEQLAQQAHSNRRLMEII-NH2 [[Arg^36]-rCRF(8-41)],inhibits,inhibits
H-LTFHLLREVLEMARAEQLAQQAHSNRRLMEII-NH2 [[Arg^36]-rCRF(10-41)],inhibits,inhibits
